How the values were obtained:
human KHK-A = human KHK-A (Homo sapiens (Human), UniProt P50053); test: KHK Biochemical Assay (IC50), ADP-Glo, KHK-A; details: average of at least two separate assays
Outline: (§1)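 ADP-Glo luminescence measured ADP made over a 4 h room-temperature reaction of ATP plus fructose, started after 30 min compound–enzyme pre-incubation. Buffer: 50 mM Hepes pH 7.4, 140 mM KCl, 5 mM MgCl2, 0.01% Triton-X. Enzyme was His-tagged, BL21 (DE3)-expressed, Ni-NTA-purified; compounds in 1:3 DMSO dilution series.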

[1] = target: KHK-C expressed in NRK-52E cells (Homo sapiens (Human), UniProt P50053); test: KHK-C Cell-based Assay (EC50), NRK CTG, fructose-mediated ATP-depletion
human KHK-C = human KHK-C (Homo sapiens (Human), UniProt P50053); test: KHK Biochemical Assay (IC50), ADP-Glo, KHK-C; details: average of at least two separate assays
Outline: as §1

Chain of human KHK-A (P50053 other isoform, or with tags, fused parts or gaps): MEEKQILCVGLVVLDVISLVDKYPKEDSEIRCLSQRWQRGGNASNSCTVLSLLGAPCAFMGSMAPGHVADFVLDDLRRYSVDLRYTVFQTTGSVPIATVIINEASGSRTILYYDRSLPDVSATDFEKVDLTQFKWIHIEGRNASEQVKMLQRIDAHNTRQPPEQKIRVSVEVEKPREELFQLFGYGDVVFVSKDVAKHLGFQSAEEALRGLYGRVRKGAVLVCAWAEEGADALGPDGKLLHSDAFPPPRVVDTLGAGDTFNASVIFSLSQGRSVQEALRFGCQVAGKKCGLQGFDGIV
Chain of KHK-C expressed in NRK-52E cells (P50053 whole entry): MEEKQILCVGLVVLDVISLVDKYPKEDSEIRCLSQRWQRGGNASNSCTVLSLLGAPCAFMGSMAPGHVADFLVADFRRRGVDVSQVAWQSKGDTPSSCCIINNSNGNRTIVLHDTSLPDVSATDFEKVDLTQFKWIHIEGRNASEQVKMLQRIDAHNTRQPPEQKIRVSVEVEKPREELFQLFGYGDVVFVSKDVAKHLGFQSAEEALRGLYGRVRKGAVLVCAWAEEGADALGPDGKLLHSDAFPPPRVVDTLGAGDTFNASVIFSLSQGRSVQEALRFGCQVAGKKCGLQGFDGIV
Chain of human KHK-C (P50053 whole entry): as above

IC50 (human KHK-A) [nM]	EC50 [1] [nM]	IC50 (human KHK-C) [nM]	IC50 (human KHK-A; ADP-Glo) [nM]	IC50 (human KHK-C; ADP-Glo) [nM]	Compound
–	21.5	–	16.2	1.9	NC1(c2ccc(-c3nc(N4CCC4C(F)F)nc4c3CCC4(F)F)cc2)CS(=O)(=O)C1 (stereo not drawn) [Example 799, 3-amino-3-(4-(2-(2-(difluoromethyl)azetidin-1-yl)-7,7-difluoro-6,7-dihydro-5H-cyclopenta[d]pyrimidin-4-yl)phenyl)thietane 1,1-dioxide]
–	11.3	–	0.8	0.5	N#CCC(N)c1ccc(-c2nc(N3CC[C@@H]3C(F)(F)F)nc3c2CCC3(F)F)cc1 (stereo partly drawn) [Example 803, 3-amino-3-(4-(7,7-difluoro-2-((R)-2-(trifluoromethyl)azetidin-1-yl)-6,7-dihydro-5H-cyclopenta[d]pyrimidin-4-yl)phenyl)propanenitrile]
–	3.2	–	2	0.2	O=C1N[C@@]2(CO1)COc1cc(-c3nc(N4CC[C@@H]4C(F)(F)F)nc4c3CCC4(F)F)ccc12 [Example 830, (R)-6-(7,7-difluoro-2-((R)-2-(trifluoromethyl)azetidin-1-yl)-6,7-dihydro-5H-cyclopenta[d]pyrimidin-4-yl)-2H-spiro[benzofuran-3,4′-oxazolidin]-2′-one]
–	8.7	–	6.3	0.6	O=C1N[C@@]2(CO1)COc1cc(-c3nc(N4CCC4C(F)F)nc4c3CCC4(F)F)ccc12 (stereo partly drawn) [Example 831, (3R)-6-(2-(2-(difluoromethyl)azetidin-1-yl)-7,7-difluoro-6,7-dihydro-5H-cyclopenta[d]pyrimidin-4-yl)-2H-spiro[benzofuran-3,4′-oxazolidin]-2′-one]
–	20.5	–	2.5	5.7	COc1ccc(-c2nc(N3C[C@@H](O)[C@@H]3C)nc3c2CCC3(F)F)cc1S(=N)(=O)C(F)F (stereo partly drawn) [Example 832, (2S,3R)-1-[4-[3-(difluoromethylsulfonimidoyl)-4-methoxy-phenyl]-7,7-difluoro-5,6-dihydrocyclopenta[d]pyrimidin-2-yl]-2-methyl-azetidin-3-ol]

The next lines start with the compound.

Compound	IC50 (human KHK-A) [nM]	EC50 [1] [nM]	IC50 (human KHK-C) [nM]	IC50 (human KHK-A; ADP-Glo) [nM]	IC50 (human KHK-C; ADP-Glo) [nM]
COc1c(C)cc(-c2nc(N3C[C@@H](O)[C@@H]3C)nc3c2CCC3(F)F)cc1S(C)(=N)=O (stereo partly drawn) [Example 722, (5-(7,7-difluoro-2-((2S,3R)-3-hydroxy-2-methylazetidin-1-yl)-6,7-dihydro-5H-cyclopenta[d]pyrimidin-4-yl)-2-methoxy-3-methylphenyl)(imino)(methyl)-λ^6-sulfanone]	8	25.7	5	–	–
C[C@H]1CCN1c1nc2c(c(-c3ccc4[nH]nnc4c3)n1)CCC2 [Example 729, (S)-5-(2-(2-methylazetidin-1-yl)-6,7-dihydro-5H-cyclopenta[d]pyrimidin-4-yl)-1H-benzo[d][1,2,3]triazole]	29.1	273	33.5	–	–
C[C@@H]1N(c2nc(-c3ccc4c(c3)OC[C@@]43COC(=O)N3)c3c(n2)C(F)(F)CC3)C[C@@]1(C)O [Example 829, (3R)-6-[7,7-difluoro-2-[(2S,3R)-3-hydroxy-2,3-dimethyl-azetidin-1-yl]-5,6-dihydrocyclopenta[d]pyrimidin-4-yl]spiro[2H-benzofuran-3,4′-oxazolidine]-2′-one]	–	10.4	–	25.8	1
C[C@H]1CCN1c1nc2c(c(-c3cccc(S(=N)(=O)C4CCOCC4)c3)n1)CCC2 (stereo partly drawn) [Example 880, imino(3-(2-((S)-2-methylazetidin-1-yl)-6,7-dihydro-5H-cyclopenta[d]pyrimidin-4-yl)phenyl)(tetrahydro-2H-pyran-4-yl)-λ^6-sulfanone]	–	> 100	–	22.5	31.6
COc1ccc(-c2nc(N3C[C@@H](O)[C@@H]3C)nc3c2CCC3(F)F)cc1S(C)(=O)=O [Example 882, (2S,3R)-1-(7,7-difluoro-4-(4-methoxy-3-(methylsulfonyl)phenyl)-6,7-dihydro-5H-cyclopenta[d]pyrimidin-2-yl)-2-methylazetidin-3-ol]	–	34.6	–	4.5	5.1
